Patent publication US6667387B1, “HCV core peptides” (priority 1992, dated 2003)
Ends that are not written are not given here.

Key:
[1] = test system: antibodies in sera from HCV-seropositive donors; assay: ELISA with HCV antibody-positive sera (biotinylated peptides on streptavidin- or avidin-coated plates, unbiotinylated peptides coated directly); type: binding, human
How it was run: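 Read-out is OD at 450 nm after HRP goat anti-human Ig and TMB development, following 1 h at 37° C. with seropositive or negative sera diluted 1:100 (or 20-fold). Antigen was either unbiotinylated peptide adsorbed on plastic (pH 9.6 carbonate, 2–5 or 3 μg/ml) or biotinylated peptide at 1 μg/ml captured on streptavidin-coated wells, with casein blocking.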

[2] = ELISA with seronegative / negative control sera (specificity); type: binding, human
How it was run: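 Specificity readout is OD at 450 nm (HRP goat anti-human Ig, TMB/H2O2, sulfuric acid stop), with ≥0.250 counted positive. Seronegative donor sera (typically 1:100, 1 h, 37° C) were applied to casein-blocked wells coated with peptide directly or via streptavidin capture of biotinylated peptide.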

PQRKTKRNTNRRPQDVKFPG
optical density (450 nm) ([1]; Table 4C, serum 8241, 20-fold dilution): 0.444
optical density (450 nm) ([1]; Table 4C, serum 8242, 20-fold dilution): 1.682
optical density (450 nm) ([1]; Table 4C, serum 8243, 20-fold dilution): 2.181
optical density (450 nm) ([1]; Table 4C, serum 8247, 20-fold dilution): 1.518
optical density (450 nm) ([1]; Table 4C, serum 8250, 20-fold dilution): 0.110
optical density (450 nm) ([1]; Table 4C, serum 8271, 20-fold dilution): 0.912
optical density (450 nm) ([1]; Table 4C, serum 8273, 20-fold dilution): 2.468
optical density (450 nm) ([1]; Table 4C, serum 8274, 20-fold dilution): 2.700
optical density (450 nm) ([1]; Table 4C, serum 8275, 20-fold dilution): 1.489
optical density (450 nm) ([1]; Table 4C, serum 8276, 20-fold dilution): 2.133
optical density (450 nm) ([1]; Table 4C, serum 8277, 20-fold dilution): 1.771
optical density (450 nm) ([1]; Table 4C, serum 8278, 20-fold dilution): 1.907
optical density (450 nm) ([1]; Table 5, sample 8242 (positive), peptide concentration 0.01 micrograms per milliliter, listed as Unbiotinylated HCV peptide II): 0.051
optical density (450 nm) ([1]; Table 5, sample 8242 (positive), peptide concentration 0.03 micrograms per milliliter, listed as Unbiotinylated HCV peptide II): 0.048
optical density (450 nm) ([1]; Table 5, sample 8242 (positive), peptide concentration 0.1 micrograms per milliliter, listed as Unbiotinylated HCV peptide II): 0.058
optical density (450 nm) ([1]; Table 5, sample 8242 (positive), peptide concentration 0.3 micrograms per milliliter, listed as Unbiotinylated HCV peptide II): 0.234
optical density (450 nm) ([1]; Table 5, sample 8242 (positive), peptide concentration 1.0 micrograms per milliliter, listed as Unbiotinylated HCV peptide II): 0.408
optical density (450 nm) ([1]; Table 5, sample 8242 (positive), peptide concentration 3.0 micrograms per milliliter, listed as Unbiotinylated HCV peptide II): 0.539
optical density (450 nm) ([1]; Table 5, sample 8243 (positive), peptide concentration 0.01 micrograms per milliliter, listed as Unbiotinylated HCV peptide II): 0.056
optical density (450 nm) ([1]; Table 5, sample 8243 (positive), peptide concentration 0.03 micrograms per milliliter, listed as Unbiotinylated HCV peptide II): 0.057
optical density (450 nm) ([1]; Table 5, sample 8243 (positive), peptide concentration 0.1 micrograms per milliliter, listed as Unbiotinylated HCV peptide II): 0.181
optical density (450 nm) ([1]; Table 5, sample 8243 (positive), peptide concentration 0.3 micrograms per milliliter, listed as Unbiotinylated HCV peptide II): 0.831
optical density (450 nm) ([1]; Table 5, sample 8243 (positive), peptide concentration 1.0 micrograms per milliliter, listed as Unbiotinylated HCV peptide II): 1.221
optical density (450 nm) ([1]; Table 5, sample 8243 (positive), peptide concentration 3.0 micrograms per milliliter, listed as Unbiotinylated HCV peptide II): 1.341
optical density (450 nm) ([1]; Table 5, sample 8318 (positive), peptide concentration 0.01 micrograms per milliliter, listed as Unbiotinylated HCV peptide II): 0.048
optical density (450 nm) ([1]; Table 5, sample 8318 (positive), peptide concentration 0.03 micrograms per milliliter, listed as Unbiotinylated HCV peptide II): 0.095
optical density (450 nm) ([1]; Table 5, sample 8318 (positive), peptide concentration 0.1 micrograms per milliliter, listed as Unbiotinylated HCV peptide II): 0.181
optical density (450 nm) ([1]; Table 5, sample 8318 (positive), peptide concentration 0.3 micrograms per milliliter, listed as Unbiotinylated HCV peptide II): 0.347
optical density (450 nm) ([1]; Table 5, sample 8318 (positive), peptide concentration 1.0 micrograms per milliliter, listed as Unbiotinylated HCV peptide II): 0.626
optical density (450 nm) ([1]; Table 5, sample 8318 (positive), peptide concentration 3.0 micrograms per milliliter, listed as Unbiotinylated HCV peptide II): 0.791
optical density (450 nm) ([1]; Table 5, sample 8320 (positive), peptide concentration 0.01 micrograms per milliliter, listed as Unbiotinylated HCV peptide II): 0.479
optical density (450 nm) ([1]; Table 5, sample 8320 (positive), peptide concentration 0.03 micrograms per milliliter, listed as Unbiotinylated HCV peptide II): 1.272
optical density (450 nm) ([1]; Table 5, sample 8320 (positive), peptide concentration 0.1 micrograms per milliliter, listed as Unbiotinylated HCV peptide II): 1.828
optical density (450 nm) ([1]; Table 5, sample 8320 (positive), peptide concentration 0.3 micrograms per milliliter, listed as Unbiotinylated HCV peptide II): 2.004
optical density (450 nm) ([1]; Table 5, sample 8320 (positive), peptide concentration 1.0 micrograms per milliliter, listed as Unbiotinylated HCV peptide II): 2.163
optical density (450 nm) ([1]; Table 5, sample 8320 (positive), peptide concentration 3.0 micrograms per milliliter, listed as Unbiotinylated HCV peptide II): 2.278
optical density (450 nm) ([2]; Table 4C, negative serum): 0.047
optical density (450 nm) ([2]; Table 5, sample 1747 (negative), peptide concentration 0.01 micrograms per milliliter, listed as Unbiotinylated HCV peptide II): 0.041
optical density (450 nm) ([2]; Table 5, sample 1747 (negative), peptide concentration 0.03 micrograms per milliliter, listed as Unbiotinylated HCV peptide II): 0.043
optical density (450 nm) ([2]; Table 5, sample 1747 (negative), peptide concentration 0.1 micrograms per milliliter, listed as Unbiotinylated HCV peptide II): 0.044
optical density (450 nm) ([2]; Table 5, sample 1747 (negative), peptide concentration 0.3 micrograms per milliliter, listed as Unbiotinylated HCV peptide II): 0.041
optical density (450 nm) ([2]; Table 5, sample 1747 (negative), peptide concentration 1.0 micrograms per milliliter, listed as Unbiotinylated HCV peptide II): 0.046
optical density (450 nm) ([2]; Table 5, sample 1747 (negative), peptide concentration 3.0 micrograms per milliliter, listed as Unbiotinylated HCV peptide II): 0.049
optical density (450 nm) ([2]; Table 5, sample 1781 (negative), peptide concentration 0.01 micrograms per milliliter, listed as Unbiotinylated HCV peptide II): 0.046
optical density (450 nm) ([2]; Table 5, sample 1781 (negative), peptide concentration 0.03 micrograms per milliliter, listed as Unbiotinylated HCV peptide II): 0.053
optical density (450 nm) ([2]; Table 5, sample 1781 (negative), peptide concentration 0.1 micrograms per milliliter, listed as Unbiotinylated HCV peptide II): 0.046
optical density (450 nm) ([2]; Table 5, sample 1781 (negative), peptide concentration 0.3 micrograms per milliliter, listed as Unbiotinylated HCV peptide II): 0.045
optical density (450 nm) ([2]; Table 5, sample 1781 (negative), peptide concentration 1.0 micrograms per milliliter, listed as Unbiotinylated HCV peptide II): 0.053
optical density (450 nm) ([2]; Table 5, sample 1781 (negative), peptide concentration 3.0 micrograms per milliliter, listed as Unbiotinylated HCV peptide II): 0.053
